One test concerns SUDHL5 cells. Briefly: Antiproliferation assay SUDHL5 (Assay 7). It is filed as cell-based. A digest of the protocol:
(§1)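 IC50 values reflect growth relative to a day 0 baseline (CI) and DMSO vehicle (C0). Viable cells were quantified by CellTiter-Glo luminescence after 72 h treatment at 37 °C.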

The subject of a further test is HMC-1-8 cells. Briefly: Antiproliferation assay HMC-1-8 (Assay 7). It is filed as cell-based. A digest of the protocol: as §1
Another test has as its target BCL-XL (Homo sapiens (Human), UniProt Q07817). Briefly: Protein-protein interaction assay BCL-XL/Bad BH3 peptide (BCL-XL assay, TR-FRET). As to conditions: read-out: BCL-XL Assay IC50 (median). It is filed as binding. Summed up: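 TR-FRET competition: 1 nM His-tagged human BCL-XL (1-212) versus 1 nM biotin-PEG Bad BH3 peptide tracer, buffer 50 mM Tris pH 7, NaCl, KF, DTT. Compound preincubated with protein 10 min at 22 °C; read after 1 h at 22 °C plus overnight at 4 °C. IC50 by 4-parameter regression of normalized ratios.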
(In general: In TR-FRET formats the signal depends on donor and acceptor labels being close together.)

The mark [1] stands for this setting: Homo sapiens, SU-DHL-5, 72 h, 72 h, CellTiter-Glo, read-out: Antiproli SUDHL5 IC50 (median).
Where [2] appears, read: 72 h, CellTiter-Glo, read-out: Antiproli HMC-1-8 IC50 median.
The mark [3] stands for this setting: 72 h, CellTiter-Glo, read-out: Antiproli SUDHL5 IC50 (median).
Where [4] appears, read: Homo sapiens, SU-DHL-5, 72 h, read-out: Antiproli SUDHL5 IC50 (median), 72 h, CellTiter-Glo.
The mark [5] stands for this setting: 72 h, read-out: Antiproli HMC-1-8 IC50 median, 72 h, CellTiter-Glo.

Where a name gives a salt, the structure may show the parent alone. Read-outs that look alike come from different tables or passages of the source. Bounds are passed on as bounds.

Chain of BCL-XL (Q07817 1-212): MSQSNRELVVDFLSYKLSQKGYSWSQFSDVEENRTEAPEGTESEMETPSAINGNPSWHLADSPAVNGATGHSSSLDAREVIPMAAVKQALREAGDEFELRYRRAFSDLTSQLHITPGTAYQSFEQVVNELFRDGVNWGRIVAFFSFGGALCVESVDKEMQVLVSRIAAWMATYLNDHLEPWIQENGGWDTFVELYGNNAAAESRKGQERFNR

With `CCc1c2c(nn1C)C(CCO)OCCCCn1c(C(=O)O)c(CCCOc3cccc4cc(F)ccc34)c3ccc(Cl)c-2c31` (racemic) [Example 44, (rac)-4-chloro-3-ethyl-7-{3-[(6-fluoronaphthalen-1-yl)oxy]propyl}-(15-rac)-(2-hydroxyethyl)-2-methyl-2,10,11,12,13,15-hexahydropyrazolo[4′,3′:9,10][1,6]oxazacycloundecino[8,7,6-hi]indole-8-carboxylic Acid], the IC50 turned out to be 140 nM with SUDHL5 cells (setting [1]), 2630 nM in the test on HMC-1-8 cells (setting [2]) and 12500 nM at BCL-XL.
The like results for `CCc1c2c(nn1C)C(CCN1CCOCC1)OCCCCn1c(C(=O)O)c(CCCOc3cccc4cc(F)ccc34)c3ccc(F)c-2c31` (racemic) [Example 49, (rac)-3-Ethyl-4-fluoro-7-{3-[(6-fluoronaphthalen-1-yl)oxy]propyl}-2-methyl-(15-rac)-[2-(morpholin-4-yl)ethyl]-2,10,11,12,13,15-hexahydropyrazolo[4′,3′:9,10][1,6]oxazacycloundecino[8,7,6-hi]indole-8-carboxylic Acid] were, in that order, 42 nM, 1060 nM and > 20000 nM.
The like results for `CCc1c2c(nn1C)C(CC(C)(C)O)OCCCCn1c(C(=O)O)c(CCCOc3cccc4cc(F)ccc34)c3ccc(Cl)c-2c31` (racemic) [Example 52, (rac)-4-chloro-3-ethyl-7-{3-[(6-fluoronaphthalen-1-yl)oxy]propyl}-(15-rac)-(2-hydroxy-2-methylpropyl)-2-methyl-2,10,11,12,13,15-hexahydropyrazolo[4′,3′:9,10][1,6]oxazacycloundecino[8,7,6-hi]indole-8-carboxylic Acid] were, in that order, 400 nM, 3190 nM and 14700 nM.
The like results for `CCc1c2c(nn1C)C(CCN1CCC(F)(F)C1)OCCCCn1c(C(=O)O)c(CCCOc3cccc4cc(F)ccc34)c3ccc(Cl)c-2c31` (racemic) [Example 55, (rac)-4-chloro-(15-rac)-[2-(3,3-difluoropyrrolidin-1-yl)ethyl]-3-ethyl-7-{3-[(6-fluoronaphthalen-1-yl)oxy]propyl}-2-methyl-2,10,11,12,13,15-hexahydropyrazolo[4′,3′:9,10][1,6]oxazacycloundecino[8,7,6-hi]indole-8-carboxylic acid—2-hydroxypropane-1,2,3-tricarboxylic Acid Salt] were, in that order, 67 nM, 172 nM and > 20000 nM.
Regarding `CCc1c2c(nn1C)C(c1ccccc1)OCCCCn1c(C(=O)O)c(CCCOc3cccc4cc(F)ccc34)c3ccc(Cl)c-2c31` (racemic) [Example 59, (rac)-4-chloro-3-ethyl-7-{3-[(6-fluoronaphthalen-1-yl)oxy]propyl}-2-methyl-(15-rac)-phenyl-2,10,11,12,13,15-hexahydropyrazolo[4′,3′:9,10][1,6]oxazacycloundecino[8,7,6-hi]indole-8-carboxylic Acid], the values for the IC50 in the test with SUDHL5 cells (setting [1]), in the test with HMC-1-8 cells (setting [2]) and on BCL-XL were 5100 nM, 3410 nM and > 20000 nM, respectively.
As to `CCc1c2c(nn1C)C(CCC1CCOCC1)OCCCCn1c(C(=O)O)c(CCCOc3cccc4cc(F)ccc34)c3ccc(Cl)c-2c31` (racemic) [Example 60, (rac)-4-chloro-3-ethyl-7-{3-[(6-fluoronaphthalen-1-yl)oxy]propyl}-2-methyl-(15-rac)-[2-(oxan-4-yl)ethyl]-2,10,11,12,13,15-hexahydropyrazolo[4′,3′:9,10][1,6]oxazacycloundecino[8,7,6-hi]indole-8-carboxylic Acid], the 50% inhibitory concentration (IC50) with SUDHL5 cells (setting [1]) was found to be 65 nM; in the test on HMC-1-8 cells (setting [2]), 951 nM; at BCL-XL, 15400 nM.
As for `CCc1c2c(nn1C)C(CCCN1CCOCC1)OCCCCn1c(C(=O)O)c(CCCOc3cccc4cc(F)ccc34)c3ccc(Cl)c-2c31` (racemic) [Example 65, (rac)-4-chloro-3-ethyl-7-{3-[(6-fluoronaphthalen-1-yl)oxy]propyl}-2-methyl-(15-rac)-[3-(morpholin-4-yl)propyl]-2,10,11,12,13,15-hexahydropyrazolo[4′,3′:9,10][1,6]oxazacycloundecino[8,7,6-hi]indole-8-carboxylic Acid], the results for the 50% inhibitory concentration (IC50) in the test on SUDHL5 cells (setting [1]), in the test with HMC-1-8 cells (setting [2]) and at BCL-XL were 490 nM, 400 nM and > 20000 nM, respectively.
Take `CCc1c2c(nn1C)C(CCC(C)(C)O)OCCCCn1c(C(=O)O)c(CCCOc3cccc4cc(F)ccc34)c3ccc(Cl)c-2c31` (racemic) [Example 74, (rac)-4-chloro-3-ethyl-7-{3-[(6-fluoronaphthalen-1-yl)oxy]propyl}-(15-rac)-(3-hydroxy-3-methylbutyl)-2-methyl-2,10,11,12,13,15-hexahydropyrazolo[4′,3′:9,10][1,6]oxazacycloundecino[8,7,6-hi]indole-8-carboxylic Acid]: the IC50 was found to be 67 nM with SUDHL5 cells (setting [1]), 397 nM in the test with HMC-1-8 cells (setting [2]) and 13300 nM on BCL-XL.
The like results for `CCc1c2c(nn1C)C(Cc1ccccc1)OCCCCn1c(C(=O)O)c(CCCOc3cccc4cc(F)ccc34)c3ccc(Cl)c-2c31` (racemic) [Example 92, (rac)-(rac-15)-benzyl-4-chloro-3-ethyl-7-{3-[(6-fluoro-1-naphthyl)oxy]propyl}-2-methyl-2,10,11,12,13,15-hexahydropyrazolo[4′,3′:9,10][1,6]oxazacycloundecino[8,7,6-hi]indole-8-carboxylic Acid] were, in that order, 1200 nM, 7070 nM and 13200 nM.
`Cc1c2c(nn1C)C(CCN1CCOCC1)OCCCCn1c(C(=O)O)c(CCCOc3cccc4ccccc34)c3ccc(Cl)c-2c31` (single isomer, unassigned; enantiomer 1) [Example 14, 4-chloro-2,3-dimethyl-15-[2-(morpholin-4-yl)ethyl]-7-{3-[(naphthalen-1-yl)oxy]propyl}-2,10,11,12,13,15-hexahydropyrazolo[4′,3′:9,10][1,6]oxazacycloundecino[8,7,6-hi]indole-8-carboxylic Acid (Enantiomer 1)]: the IC50 with SUDHL5 cells (setting [3]) is 28 nM; in the test with HMC-1-8 cells (setting [2]), 381 nM; on BCL-XL, > 20000 nM.
`Cc1c2c(nn1C)C(CCN1CCOCC1)OCCCCn1c(C(=O)O)c(CCCOc3cccc4cc(F)ccc34)c3ccc(F)c-2c31` (single isomer, unassigned; enantiomer 1) [Example 20, 4-fluoro-7-{3-[(6-fluoronaphthalen-1-yl)oxy]propyl}-2,3-dimethyl-15-[2-(morpholin-4-yl)ethyl]-2,10,11,12,13,15-hexahydropyrazolo[4′,3′:9,10][1,6]oxazacycloundecino[8,7,6-hi]indole-8-carboxylic Acid—N-ethylethanamine (Enantiomer 1)]: the IC50 in the test with SUDHL5 cells (setting [4]) is 20 nM; in the test with HMC-1-8 cells (setting [5]), 460 nM; at BCL-XL, > 20000 nM.
For `Cc1c2c(nn1C)C(CCO)OCCCCn1c(C(=O)O)c(CCCOc3cccc4ccccc34)c3ccc(Cl)c-2c31` (single isomer, unassigned; enantiomer 1) [Example 31, (+)-4-chloro-15-(2-hydroxyethyl)-2,3-dimethyl-7-{3-[(naphthalen-1-yl)oxy]propyl}-2,10,11,12,13,15-hexahydropyrazolo[4′,3′:9,10][1,6]oxazacycloundecino[8,7,6-hi]indole-8-carboxylic Acid (Enantiomer 1)], the IC50 with SUDHL5 cells (setting [3]) is 240 nM; in the test on HMC-1-8 cells (72 h, CellTiter-Glo; read-out: Antiproli HMC-1-8 IC50 median), 6800 nM; at BCL-XL, > 20000 nM.
Take `Cc1c2c(nn1C)C(C1CC1)OCCCCn1c(C(=O)O)c(CCCOc3cccc4ccccc34)c3ccc(Cl)c-2c31` (single isomer, unassigned; enantiomer 1) [Example 35, (+)-4-chloro-15-cyclopropyl-2,3-dimethyl-7-{3-[(naphthalen-1-yl)oxy]propyl}-2,10,11,12,13,15-hexahydropyrazolo[4′,3′:9,10][1,6]oxazacycloundecino[8,7,6-hi]indole-8-carboxylic Acid N-ethylethanamine Salt (Enantiomer 1)]: the IC50 in the test on SUDHL5 cells (setting [4]) was 2700 nM; in the test on HMC-1-8 cells (setting [5]), 19700 nM; at BCL-XL, > 20000 nM.
The like results for `CCc1c2c(nn1C)C(C1CC1)OCCCCn1c(C(=O)O)c(CCCOc3cccc4cc(F)ccc34)c3ccc(Cl)c-2c31` (single isomer, unassigned; enantiomer 1) [Example 39, (+)-4-chloro-15-cyclopropyl-3-ethyl-7-{3-[(6-fluoronaphthalen-1-yl)oxy]propyl}-2-methyl-2,10,11,12,13,15-hexahydropyrazolo[4′,3′:9,10][1,6]oxazacycloundecino[8,7,6-hi]indole-8-carboxylic Acid—N-ethylethanamine Salt (Enantiomer 1)] were, in that order, 880 nM, 12300 nM and 18100 nM.
Regarding `CCc1c2c(nn1C)C(CCOC)OCCCCn1c(C(=O)O)c(CCCOc3cccc4cc(F)ccc34)c3ccc(Cl)c-2c31` (single isomer, unassigned; enantiomer 1) [Example 42, (+)-4-chloro-3-ethyl-7-{3-[(6-fluoronaphthalen-1-yl)oxy]propyl}-15-(2-methoxyethyl)-2-methyl-2,10,11,12,13,15-hexahydropyrazolo[4′,3′:9,10][1,6]oxazacycloundecino[8,7,6-hi]indole-8-carboxylic Acid—N-ethylethanamine Salt (Enantiomer 1)], the half-maximal inhibitory concentration (IC50) in the test with SUDHL5 cells (setting [4]) came out at 52 nM; in the test with HMC-1-8 cells (read-out: Antiproli HMC-1-8 IC50 median; 72 h, CellTiter-Glo), 1080 nM; at BCL-XL, 15000 nM.

What is called IC50 is the concentration that gives 50% inhibition.

For the origin of these results see patent US11440923B2, “Substituted macrocyclic indole derivatives” (Bayer Aktiengesellschaft, priority 2017, dated 2022).
